This note sets out measurements from article PMC7321169, “N-Alkylaminoferrocene-Based Prodrugs Targeting Mitochondria of Cancer Cells” (Molecules, 2020).

The test system of data set [1] is BL-2 cells. Nature of the data set: Viability of suspension BL-2 cells (MTT). It counts as cell-based. As to the method:
The suspension of BL-2 cells in the RPMI 1640 medium containing 5% FBS (for 24- and 48 h assays) or 10% FBS (for 96 h assays) 1% L-glutamine, and 1% penicillin/streptomycin was spread in the wells of a 96-well microtiter plate. Every plate contained 50,000 cells (with the exception of the 96h-experiment, for which 25,000 cells were used) per well per 100 μL. Stock solutions of prodrugs of different concentrations (1 μL, solvent DMSO) were added to the wells and incubated for 24–96 h. Four experiments were conducted for each concentration of the prodrug. Finally, 3-(4,5-dimethylthiazol-2-yl)-2,5-diphenyltetrazolium bromide (MTT; 20 μL of the solution prepared by dissolving MTT (5 mg) in PBS buffer (1 mL)) was added to each well, incubated for 3 h, treated with sodium dodecyl sulfate (SDS) solution (90 μL, 10% solution in 0.01 M aqueous HCl), and incubated overnight. Then the intensity of absorbance at 590 nm was measured (MTT is converted to blue dye (λmax = 590 nm) in live cells). The absorbance at 690 nm was taken as a baseline value.

Data set [2] concerns A2780 cells. Briefly: Viability of adherent A2780 cells (MTT). The format is cell-based, human. As to the method:
(§1) Adherent A2780, DU-145 and NHDF cells were grown as mentioned before. Then, the cells were resuspended in the RPMI 1640 (DMEM for HDFa cell line) medium containing 5% FBS (for 24- and 48 h assays) or 10% FBS (for 96 h assays) 1% L-glutamine, and 1% penicillin/streptomycin. This suspension was spread in the wells of a 96-well microtiter plate. Every well in the plates contained 25,000 cells (exceptions: 12,500 cells for the 96h-assay and 10,000 cells for experiments with HDFa cell line) per well per 100 μL and was left at 37 °C in the chamber filled with CO2 (5%) overnight. Stock solutions of prodrugs of different concentrations (1 μL, solvent DMSO) were added to the wells and incubated for 24–96 h. Four experiments were conducted for each concentration of the prodrug. Finally, 3-(4,5-dimethylthiazol-2-yl)-2,5-diphenyltetrazolium bromide (MTT; 20 μL of the solution prepared by dissolving MTT (5 mg) in PBS buffer (1 mL)) was added to each well, incubated for 3 h, treated with sodium dodecyl sulfate (SDS) solution (90 μL, 10% solution in 0.01 M aqueous HCl), and incubated overnight. Then the intensity of absorbance at 590 nm was measured (MTT is converted to blue dye (λmax = 590 nm) in live cells). The absorbance at 690 nm was taken as a baseline value.

Data set [3] in a line: Solubility of prodrugs in aqueous buffers (absorbance at 790 nm). The format is physicochemical. As to the method: Prodrugs 5, 7 and 9 (known control) were dissolved in DMSO at concentrations of 15, 10, 5, 2, 1.5, 1, and 0.2 mM. These solutions (10 μL) were transferred to quartz cuvettes containing 990 μL of either Dulbecco's phosphate-buffered saline (DPBS) or Roswell Park Memorial Institute (RPMI) medium containing 20% of fetal bovine serum (FBS) to obtain solutions (or suspensions) with final concentrations of prodrugs-150, 100, 50, 20, 15, 10, and 2 μM. The absorbance at 790 nm of the resulting solutions/suspensions was measured and plotted as a function of the concentration of prodrugs.

For data set [4], the system named is DU-145 cells. Nature of the data set: Viability of adherent DU-145 cells (MTT). It counts as cell-based, human. As to the method:
as §1

Data set [5] concerns Jurkat cells. Briefly: Viability and cell death of Jurkat cells (Annexin A5-FITC/PI flow cytometry). To be noted: for Mechanism of cell death of Jurkat cells: 48 h, Ax/PI staining; for IC50: 48 h incubation. The format is cell-based, human. As to the method: Jurkat cells were counted in MUSE Cell Analyzer using MUSE® Count &Viability Assay Kit (Merck-Millipore, Billerica, MA, USA) and adjusted to a density of 1.0 × 10^5/mL in RPMI 1640 medium (with 10% FCS and 1% glutamine). A total of 9000 cells per well per 90 μL were seeded into 96 well culture plates. The 50 mM prodrug stock solutions were diluted to 300, 100, 30, and 10 μM in cell culture medium and 10 μL of the dilutions was pipetted to the cells, receiving final test concentrations of 30, 10, 3, and 1 μM. Every concentration was tested in triplicates. Cells with corresponding amounts of DMSO served as negative controls. […] was incubated with 200 μL of freshly prepared staining solution, consisting of 1 μl Annexin A5-Fitc, 0.4 μL 1,1′,3,3,3′,3′-hexamethylindodicarbocyanine iodide (DiIC1(5)) (both from Thermo Fisher Scientific, Waltham, MA, USA), 66.6 ng propidiumiodide (PI) and 33 μM monobromobimane (MBB, both from Sigma-Aldrich, Taufkirchen, Germany) per 1 mL Ringer’s solution (Fresenius Kabi AG, Bad Homburg, Germany). Cells were incubated for 20 min at 4 °C and then analyzed in Gallios cytofluorometer™ (Beckman Coulter, Fullerton, CA, USA). Fitc and propidium iodide were excited at 488 nm; Fitc fluorescence was recorded on the FL1 sensor (525/38 nm band pass, BP) and propidium iodide fluorescence was detected on FL3 sensor (620/30 nm BP), DiIC1(5) fluorescence was excited at 638 nm and detected on FL6 sensor at 675/20 nm. Monobromobimane fluorescence was excited at 405 nm and detected on FL9 sensor at 430/40 nm. To eliminate any fluorescence bleed-through, electronic compensation was used. Data were analyzed employing Kaluza™ software Version 1.2 (Beckman Coulter, Fullerton, CA, USA) and processed in Microsoft Excel. Cells negative for Annexin A5- Fitc and propidium iodide were considered viable. IC50 values were determined by fitting the % values of Ax-PI- cells versus drug concentration with a sigmoidal curve using GraphPad Prism software. Reduced glutathione (an intracellular thiol) can be detected by monobromobimane, a dye that becomes fluorescent after non-enzymatic binding to thiols. For analysis of the amount of mitochondrial membrane potential or reduced glutathione, the mean fluorescence index (MFI) was determined from viable cells by gating on Ax-PI-events.
For orientation: Flow cytometry measures light scatter and fluorescence of single cells or particles in a stream.

For data set [6], the system named is HDFa cells. Nature of the data set: Viability of adherent HDFa cells (MTT). It counts as cell-based, human. As to conditions: 48 h incubation, normal cells. As to the method:
as §1

Data set [7] in a line: Generation of ROS in cell free settings (2′,7′-dichlorofluorescin oxidation in the presence of H2O2). As to conditions: H2O2 10 mM; for Initial rate (dF/dt)0 of DCFH oxidation in the presence of H2O2: compound 49.5 μM, DCFH 10 μM, GSH 5 mM, EDTA 10 mM, MOPS buffer, 37 °C; for Activity in DCFH oxidation assay relative to prodrug 5: more active than 5, 49.5 μM. As to the method: 2′,7′-Dichlorofluorescin diacetate (DCFH-DA, 4.9 mg) was dissolved in 100 µL DMF and mixed with 0.1 M NaOH (900 µL). This mixture was incubated on a shaker for 30 min at 25 °C in the dark to obtain 10 mM 2′,7′-dichlorofluorescin (DCFH) stock solution. Next, 3-(N-morpholino)propanesulfonic acid buffer (MOPS buffer 100 mM, pH: 7.4) containing N,N,N’,N’-ethylenediaminetetraacetic acid (EDTA, 10 mM), glutathione (GSH, 5 mM) and H2O2 (10 mM) was prepared. Finally, DCFH was diluted in this buffer to 10 µM as the final concentration. Monitoring of the fluorescence was started (λex: 501 nm, λem: 525 nm). […] DMF and FeSO4 in DMF were used as controls. The measurement was conducted for 300 min (Table S2, Figure 1A).

Data set [8] deals with Jurkat cells. Nature of the data set: Mitochondrial membrane potential of Jurkat cells (DiIC1(5)). The format is cell-based, human. To be noted: 48 h; 5 at nontoxic concentrations ≤ 10 μM; 12 at all tested concentrations. As to the method: Jurkat cells were counted in MUSE Cell Analyzer using MUSE® Count &Viability Assay Kit (Merck-Millipore, Billerica, MA, USA) and adjusted to a density of 1.0 × 10^5/mL in RPMI 1640 medium (with 10% FCS and 1% glutamine). A total of 9000 cells per well per 90 μL were seeded into 96 well culture plates. The 50 mM prodrug stock solutions were diluted to 300, 100, 30, and 10 μM in cell culture medium and 10 μL of the dilutions was pipetted to the cells, receiving final test concentrations of 30, 10, 3, and 1 μM. Every concentration was tested in triplicates. Cells with corresponding amounts of DMSO served as negative controls. […] Cells were incubated for 20 min at 4 °C and then analyzed in Gallios cytofluorometer™ (Beckman Coulter, Fullerton, CA, USA). Fitc and propidium iodide were excited at 488 nm; Fitc fluorescence was recorded on the FL1 sensor (525/38 nm band pass, BP) and propidium iodide fluorescence was detected on FL3 sensor (620/30 nm BP), DiIC1(5) fluorescence was excited at 638 nm and detected on FL6 sensor at 675/20 nm. Monobromobimane fluorescence was excited at 405 nm and detected on FL9 sensor at 430/40 nm. To eliminate any fluorescence bleed-through, electronic compensation was used. Data were analyzed employing Kaluza™ software Version 1.2 (Beckman Coulter, Fullerton, CA, USA) and processed in Microsoft Excel. […]

The structures appear in SMILES notation.

Consider `C#Cc1ccc(-c2c3ccc(=[N+](C)C)cc-3oc3cc(N(C)C)ccc23)c(C(=O)[O-])c1` [control 13], for which the IC50 (commonly the concentration at which inhibition is half-maximal) in data set [1] (BL2, 48 h incubation) is 35 ± 6 µM; in data set [2] (Homo sapiens, A2780, 48 h incubation) it was greater than 50 µM.

As for `COC(=O)CCCCCn1cc(CN(C(=O)OCc2ccc(B3OC(C)(C)C(C)(C)O3)cc2)[c-]2cccc2)nn1.[Fe+2].c1cc[cH-]c1` [prodrug 9], the “Solubility in DPBS” value in data set [3] (DPBS containing DMSO (1%, v/v)) was 90 ± 10 µM. The “Solubility in FBS” value in data set [3] (RPMI medium containing 20% FBS and DMSO (1%, v/v)) came out at 114 ± 11 µM. Besides, the IC50 in data set [1] (24 h incubation) stood at 37 ± 2 µM; in data set [1] (48 h incubation), 35 ± 2 µM; in data set [1] (96 h incubation) it was 33 ± 2 µM; in data set [2] (24 h incubation) it was 42 ± 3 µM; in data set [2] (48 h incubation), 32 ± 3 µM; in data set [2] (96 h incubation) it was 30 ± 5 µM. Moreover, the IC50 in data set [4] (24 h incubation) was greater than 50 µM; in data set [4] (48 h incubation), 47 ± 2 µM; in data set [4] (96 h incubation) it was 35 ± 3 µM; in data set [5] it was 30 ± 4 µM; in data set [6], greater than 50 µM. In addition, in data set [5], the “Mechanism of cell death of Jurkat cells” value is reported as “mostly via necrosis”.

For the compound `CC1(C)OB(c2ccc(COC(=O)N(Cc3cccc(CN4CCCCC4)c3)[c-]3cccc3)cc2)OC1(C)C.[Fe+2].c1cc[cH-]c1` [prodrug 8], in data set [7], the “Initial rate (dF/dt)0 of DCFH oxidation in the presence of H2O2” value was found to be 17.1 a.u. × min^−1 and the “Activity in DCFH oxidation assay relative to prodrug 5” value was 2.2 fold.

In the case of `[Fe+2].c1cc[cH-]c1.c1cc[cH-]c1` [control 11, ferrocene], the IC50 in data set [1] (24 h incubation), in data set [1] (48 h incubation), in data set [1] (96 h incubation), in data set [2] (24 h incubation), in data set [2] (48 h incubation) and in data set [2] (96 h incubation) was greater than 50 µM each time. The concentration for half-maximal inhibition (IC50) in data set [4] (24 h incubation), in data set [4] (48 h incubation), in data set [4] (96 h incubation) and in data set [5] was greater than 50 µM throughout.

As to `O=S(=O)([O-])[O-].[Fe+2]` [FeSO4], in data set [7], the “Initial rate (dF/dt)0 of DCFH oxidation in the presence of H2O2” value worked out at 22.3 a.u. × min^−1 and the “Activity in DCFH oxidation assay relative to prodrug 5” value is reported as 2.9 fold.

Regarding `CCCC[P+](c1ccccc1)(c1ccccc1)c1ccccc1` [control 12], the IC50 is 2 ± 1 µM in data set [1] (BL2, 24 h incubation); 0.5 ± 0.2 µM in data set [1] (BL2, 48 h incubation); 0.3 ± 0.1 µM in data set [1] (BL2, 96 h incubation); less than 1 µM in data set [6] (Homo sapiens, HDFa). In addition, the “Mechanism of cell death of Jurkat cells” value in data set [5] is “mostly via necrosis”. In data set [8], the “Effect on mitochondrial potential of Jurkat cells” value is listed as “reduces the mitochondrial potential”.
